Like-named read-outs stand apart in the source and are kept apart here.
How the values were obtained:
Experiment in all cases: cells
[1] = test system: KB/V: the vincristine-resistant substrain of KB; assay type: cell-based, human; settings: read-out: IC50(M) KB/V
Protocol: (§1) Experiment 1. Cytotoxicity Screening Assay at Cell Level of Compounds of this Invention
(§2) Tumor cells at log phase were incubated on 96-well plates at a density of 1˜1.2×10^4 cells/ml, 100 μl/well. 24 h later, treatment cells were exposed to the tested agents at different concentrations. Each tested agents had 4˜5 doses, and each dose had at least 3 parallel wells. Control cells were exposed to solvents in the same volume with treat agents. Cells were cultured at 37° C. in a cell incubator with 5% CO2 and 95% air atmosphere. After 4 days of culture, the incubation medium was removed, then 200 μl 0.2% MTT (prepared by RPMI 1640) was added to each well and the plates were incubated at 37° C. for 4 hours. The supernatant was discarded and dissolved the resulting formazen product with 200 μl DMSO in each well. The absorbance at a reference wavelength of 450 nm and a test wavelength of 570 nm was read on a microplate reader after tenderly shaking. Calculated drug inhibitory rate using the following equation and IC50, taking solvent exposure tumor cells as control cells.

[2] = test system: A549/Taxol: the taxol-resistant substrain of A549; assay type: cell-based, human; settings: read-out: IC50(M) A549/Taxol
Protocol: as §1, §2

[3] = test system: KB: the human oral epithelium cancer cell strain; assay type: cell-based; settings: read-out: IC50(M) KB
Protocol: as §1, §2

[4] = test system: A549: the human lung adenocarcinoma cell strain; assay type: cell-based; settings: read-out: IC50(M) A549
Protocol: as §1, §2

[5] = Table 1, MTT, 4 days of culture

Structure (SMILES) | IC50 ([1]; Homo sapiens, KBV, 96 h) | IC50 ([2]; Homo sapiens, A549/Taxol, 96 h) | IC50 ([3]; Homo sapiens, KB, 96 h) | IC50 ([4]; Homo sapiens, A549, 96 h) | IC50 [1, 5] | IC50 [2, 5] | IC50 [4, 5] | IC50 [3, 5]
C/C=C(\C)C(=O)N[C@@H](c1ccccc1)[C@@H](O)C(=O)O[C@H]1C[C@@]2(O)[C@@H](OC(=O)c3ccccc3)[C@@H]3[C@]4(OC(C)=O)CO[C@@H]4C[C@H](O)[C@@]3(C)C(=O)[C@H](OC(C)=O)C(=C1C)C2(C)C [cephalomannine, reference compound] | 1e-06 M | > 1e-06 M | 5.18e-09 M | 1.33e-07 M | – | – | – | –
C/C=C(\C)C(=O)N[C@@H](c1ccccc1)[C@@H](O)C(=O)O[C@H]1C[C@@]2(O)[C@@H](OC(=O)c3cccc(N=[N+]=[N-])c3)[C@@H]3[C@]4(OC(C)=O)CO[C@@H]4C[C@H](O)[C@@]3(C)C(=O)[C@H](OC(=O)CC)C(=C1C)C2(C)C [Example 2, 2-(3-azidobenzoyl)-10-propionyl-cephalomannine] | – | – | – | – | 1.53e-07 M | > 1e-06 M | 8.79e-08 M | –
C/C=C(\C)C(=O)N[C@@H](c1ccccc1)[C@@H](O)C(=O)O[C@H]1C[C@@]2(O)[C@@H](OC(=O)c3ccccc3)[C@@H]3[C@]4(OC(C)=O)CO[C@@H]4C[C@H](O)[C@@]3(C)C(=O)[C@H](O)C(=C1C)C2(C)C [Example 1, 10-deacetyl-cephalomannine] | – | – | – | – | > 1e-06 M | > 1e-06 M | > 1e-06 M | –
C/C=C(\C)C(=O)N[C@@H](c1ccccc1)[C@@H](O)C(=O)O[C@H]1C[C@@]2(O)[C@@H](OC(=O)c3ccccc3)[C@@H]3[C@]4(OC(C)=O)CO[C@@H]4C[C@H](O)[C@@]3(C)C(=O)[C@H](OC(=O)CC)C(=C1C)C2(C)C [Example 4, 10-propionyl-cephalomannine] | – | – | – | – | 4.85e-07 M | 4.21e-07 M | 2.01e-07 M | 9.74e-09 M
C/C=C(\C)C(=O)N[C@@H](c1ccccc1)[C@@H](O)C(=O)O[C@H]1C[C@@]2(O)[C@@H](OC(=O)c3cccc(OC)c3)[C@@H]3[C@]4(OC(C)=O)CO[C@@H]4C[C@H](O)[C@@]3(C)C(=O)[C@H](OC(C)=O)C(=C1C)C2(C)C [Example 6, 2-(3-methoxybenzoyl)-cephalomannine] | – | – | – | – | 8.94e-07 M | > 1e-06 M | 2.1e-07 M | 1.44e-07 M
CC=C(C)C(=O)NC(c1ccccc1)C(O)C(=O)OC1CC2(O)C(OC(=O)c3cccc(OC)c3)C3C4(OC(C)=O)COC4CC(OC(=O)CC)C3(C)C(=O)C(O)C(=C1C)C2(C)C (centres unmarked) [Example 7, 2-(3-methoxybenzoyl)-7-propionyl-10-deacetyl-cephalomannine] | – | – | – | – | 2.79e-07 M | > 1e-06 M | 2.51e-07 M | 8.78e-09 M
C/C=C(\C)C(=O)N[C@@H](c1ccccc1)[C@@H](O)C(=O)O[C@H]1C[C@@]2(O)[C@@H](OC(=O)c3cccc(N=[N+]=[N-])c3)[C@@H]3[C@]4(OC(C)=O)CO[C@@H]4C[C@H](O)[C@@]3(C)C(=O)[C@H](OC(C)=O)C(=C1C)C2(C)C [Example 5, 2-(3-azidobenzoyl)-cephalomannine] | – | – | – | – | 2.23e-07 M | > 1e-06 M | > 1e-06 M | 5.9e-10 M
CC=C(C)C(=O)NC(c1ccccc1)C(O)C(=O)OC1CC2(O)C(OC(=O)c3cccc(OC)c3)C3C4(OC(C)=O)COC4CC(O)C3(C)C(=O)C(OC(=O)CC)C(=C1C)C2(C)C (centres unmarked) [Example 3, 2-(3-methoxybenzoyl)-10-propionyl-cephalomannine] | – | – | – | – | 8.02e-07 M | > 1e-06 M | 7.04e-08 M | –

Source: patent US20110039921A1 (priority 2007, published 2011)
